Patent US20230122219A1, “IRAK DEGRADERS AND USES THEREOF” (Kymera Therapeutics, Inc., priority 2020, published 2023)

How the values were obtained:
[1] = target: T1, IRAK4 (Homo sapiens, UniProt Q9NWZ3); experiment: IRAK4 MSD Degradation in OCI-LY10; assay type: cell-based; parameters: endogenous in cells; host or cells: OCI-LY10; conditions: OCI-LY10 cells, 4 hrs, Meso Scale Discovery
T1 sequence (Q9NWZ3 1-460): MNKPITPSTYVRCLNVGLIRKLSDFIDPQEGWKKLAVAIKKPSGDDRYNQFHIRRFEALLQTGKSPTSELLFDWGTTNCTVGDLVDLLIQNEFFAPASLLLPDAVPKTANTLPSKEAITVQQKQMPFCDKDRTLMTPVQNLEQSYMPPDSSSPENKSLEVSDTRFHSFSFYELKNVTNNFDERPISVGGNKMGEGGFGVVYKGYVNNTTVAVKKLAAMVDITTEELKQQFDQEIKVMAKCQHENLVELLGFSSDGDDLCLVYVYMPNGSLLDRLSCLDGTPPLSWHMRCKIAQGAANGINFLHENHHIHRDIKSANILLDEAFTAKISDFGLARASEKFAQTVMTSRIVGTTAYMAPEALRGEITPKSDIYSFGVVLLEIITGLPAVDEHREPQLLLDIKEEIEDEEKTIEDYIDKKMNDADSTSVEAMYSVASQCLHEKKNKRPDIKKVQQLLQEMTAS
Method: Degradation of IRAK4 in OCI-LY10 was quantitatively measured using Meso Scale Discovery technology. OCI-LY10 cells were seeded in 96-well plates (Corning 3799) with a density of 300,000 cells per well in 100 μL fresh media. Compounds were then added to the assay plates with a final top concentration of 1 to 10 μM in a 1:3 dilution series with total of 8 doses. The assay plates were then incubated for 4 to 24 hours at 37° C. under 5% CO2. The assay plates were then centrifuged for 5 minutes and the cell pellets were treated with 100 μL/well RIPA lysis buffer (Boston BioProducts BP-115D) with proteinase inhibitors. To prepare MSD assay plates (Meso Scale Discovery Catalog number L15XA-3), the plates were coated with […] capture antibody (mouse Anti-IRAK4 antibody [2H9], ab119942) in PBS, at 40 μL/well. […] The assay plates were then incubated at room temperature for 1 hour, washed 3 times with 150 μL/well TBST buffer, and 150 μL/well MSD reading buffer (Meso Scale Discovery catalog number R92TC-2) was added. The plates were then analyzed by a MSD reader (Meso Scale Discovery, Model Quick Plex SQ 120). The data was then analyzed by software Prism 7.0 from GraphPad and the dose-depended IRAK4 degradation were fit using a three-parameter logistic equation to calculate DC50. […]

[2] = target: T1, IRAK4; experiment: Human Whole Blood IRAK4 Degradation (whole blood monocyte, flow cytometry); assay type: cell-based; parameters: Whole blood was collected in heparinized tubes and plated on the same day as draw (day 0); from tissue; host or cells: human whole blood (CD14-positive monocytes gated by flow cytometry); conditions: human whole blood monocytes, read-out: IRAK4 degradation in whole blood: Average external Abs DC50
Method: Whole blood was collected in heparinized tubes and plated on the same day as draw (day 0). Whole blood was aliquoted into deep well plates. Compound plates were prepared and a 10 point, 5-fold dilution was performed with a final DMSO concentration of 0.1%. Compound was added to whole blood deep well plate, sealed and incubated at 37° C., 5% C02 for 20 hours (for 4 hour treatment, compounds were prepared and added the following day). Following the treatment incubation period (day 1), BD lyse fix (BD#558049) was added to the whole blood plate, placed on plate shaker for 30 seconds and incubated for 10 mins at room temperature. Whole blood was then spun down and washed two times with PBS/0.5% BSA, aspirated to pellet and placed into −80° C. freezer until further processing for flow. On the flow run day, whole blood plates were thawed and samples were transferred to PCR plates. The pre-perm staining cocktail (CD3 Ax488/CD8 BUV805/CD14 BUV395/CD16/56 BV711/CD19 BV785) was added to samples and incubated for 30 minutes at room temperature. Samples were washed two times and permeabilized with Methanol for 10 minutes at 4° C. […] Twenty hour dose curves were calculated using a 4 parameter logistic regression curve fit, no constraints (Top doses were removed if hook effects were observed and the bottom was constrained to 0). […]

DC50 [1]: < 50 nM | DC50 [2]: < 50 nM
Compound: CN(C[C@H]1CC[C@H](n2cc(NC(=O)c3cnn4cccnc34)c(C(F)F)n2)CC1)C1CCN(c2cccc3c2n(C)c(=O)n3C2CCC(=O)NC2=O)CC1 (some centres unmarked) [I-1]
